The NIST ThermoML archive (doi:10.1016/j.jct.2016.09.040)
Numbers after ± are expanded uncertainties.

What was measured:
[1] = mn = molality of the nth substance listed, in mol/kg; settings: 75 kPa, Liquid; for viscosity: Capillary tube (Ostwald / Ubbelohde) method; for mass density: Vibrating tube method; for speed of sound: Frequency=3 MHz, Sing-around technique in a fixed-path interferometer
[2] = 75 kPa, Liquid; for viscosity: Capillary tube (Ostwald / Ubbelohde) method

O [water] + CCC(N)C(=O)O
[1], m2 = 0
Settings	mass density [kg/m3]	speed of sound [m/s]	viscosity [mPa·s]
293.15 K	–	–	1.003 ± 0.031
298.15 K	–	–	0.89 ± 0.03
303.15 K	–	–	0.798 ± 0.03
308.15 K	994.063 ± 0.6	–	0.72 ± 0.03
313.15 K	–	1529 ± 4.1	0.653 ± 0.03

[Cl-].[Na+] [sodium chloride] + O
[1]
Settings	mass density [kg/m3]	speed of sound [m/s]	viscosity [mPa·s]
293.15 K, m1 = 0.1502	1004.43 ± 0.6	1492.5 ± 4.1	1.011 ± 0.031
293.15 K, m1 = 0.3004	1010.4 ± 0.6	1502 ± 4.1	1.018 ± 0.031
293.15 K, m1 = 0.5002	1018.11 ± 0.6	1514.4 ± 4.1	1.034 ± 0.031
293.15 K, m1 = 0.7001	1026.19 ± 0.6	1526.9 ± 4.1	1.059 ± 0.031
298.15 K, m1 = 0.1502	1003.21 ± 0.6	1506.2 ± 4.1	0.891 ± 0.03
298.15 K, m1 = 0.3004	1008.89 ± 0.6	1515.3 ± 4.1	0.908 ± 0.03
298.15 K, m1 = 0.5002	–	1527.3 ± 4.1	0.933 ± 0.03
298.15 K, m1 = 0.7001	1024.85 ± 0.6	1539.2 ± 4.1	0.95 ± 0.031
303.15 K, m1 = 0.1502	1001.74 ± 0.6	1518.1 ± 4.1	0.791 ± 0.03
303.15 K, m1 = 0.3004	1007.39 ± 0.6	1527 ± 4.1	0.814 ± 0.03
303.15 K, m1 = 0.5002	1015.58 ± 0.6	1538.6 ± 4.1	0.835 ± 0.03
303.15 K, m1 = 0.7001	1023.12 ± 0.6	1550.2 ± 4.1	0.852 ± 0.03
308.15 K, m1 = 0.1502	1000.1 ± 0.6	–	0.712 ± 0.03
308.15 K, m1 = 0.3004	1005.86 ± 0.6	1537.1 ± 4.1	0.738 ± 0.03
308.15 K, m1 = 0.5002	–	1548.3 ± 4.1	0.755 ± 0.03
308.15 K, m1 = 0.7001	1021.53 ± 0.6	1559.5 ± 4.1	0.768 ± 0.03
313.15 K, m1 = 0.1502	998.234 ± 0.6	1537.6 ± 4.1	0.645 ± 0.03
313.15 K, m1 = 0.3004	1004.13 ± 0.6	1545.7 ± 4.1	0.665 ± 0.03
313.15 K, m1 = 0.5002	1011.76 ± 0.6	1556.5 ± 4.1	0.687 ± 0.03
313.15 K, m1 = 0.7001	–	1567.3 ± 4.1	0.701 ± 0.03

O [water] + [Cl-].[Na+]
[1], m2 = 0
Settings	mass density [kg/m3]	speed of sound [m/s]	viscosity [mPa·s]
293.15 K	–	–	1.003 ± 0.031
298.15 K	–	–	0.89 ± 0.03
303.15 K	–	–	0.798 ± 0.03
308.15 K	994.063 ± 0.6	–	0.72 ± 0.03
313.15 K	–	1529 ± 4.1	0.653 ± 0.03

O [water]
[2]
Settings	viscosity [mPa·s]
293.15 K	1.003 ± 0.031
298.15 K	0.89 ± 0.03
303.15 K	0.798 ± 0.03
308.15 K	0.72 ± 0.03
313.15 K	0.653 ± 0.03

Settings	speed of sound [m/s]
[2], 313.15 K, Frequency=3 MHz, Sing-around technique in a fixed-path interferometer	1529 ± 4.1
